The text below walks through data of patent publication US8951985B2, “Compounds and pharmaceutical compositions for the treatment of viral infections” (Idenix Pharmaceuticals, Inc., priority 2011, dated 2015).

Series [1] in a line: Cytotoxicity evaluation, CellTiter-Blue Cell Viability Assay. It counts as cell-based. As to conditions: human, Zluc cells (Huh-7-derived HCV replicon cell line). The method, then: (§1) For cytotoxicity evaluation, Zluc cells were treated with compound as described above, and cell viability was monitored using the CellTiter-Blue Cell Viability Assay (Promega) by adding 20 μL of the assay solution to each well. The plates were then incubated at 37° C./5% CO2 for at least 3 hours. Fluorescence was detected in plates using excitation and emission wavelengths of 560 and 590 nm, respectively, in a Victor^3 V 1420 multilabel counter (Perkin Elmer) and CC50 values were determined using Microsoft Excel and XLfit 4.1 software.
On the technique in general: Resazurin is reduced to fluorescent resorufin, in cell work by metabolically active cells.

The next series has as its system HCV genotype 1b replicon. The series is described as follows: HCV replicon assay (HCV-REPL LUC), luciferase reporter. Type of series: cell-based, hepatitis C virus. The method, then: Huh-7-derived cell line (Zluc) that harbors an HCV genotype 1b replicon and a luciferase reporter gene was grown in Dulbecco's Modified Eagle Medium (DMEM) supplemented with 10% fetal bovine serum, 2 mM GlutaMAX, 1% MEM nonessential amino acids, 100 IU/mL penicillin, 100 μg/mL streptomycin, and 0.5 mg/mL Geneticin® (G418). For dose response testing the cells were seeded in 96-well plates at 7.5×10^3 cells per well in a volume of 50 μl, and incubated at 37° C./5% CO2. Drug solutions were made up freshly in Huh-7 media as 2× stocks. Ten additional 5-fold dilutions were prepared from these stocks in DMEM without G418. At least three hours after Zluc cells were seeded, drug treatment was initiated by adding 50 μL of drug dilutions to the plates in duplicate. […] Cells were then incubated at 37° C./5% CO2. Alternatively compounds were tested at two concentrations (10 nM and 100 nM). […] After 72 hours of incubation, the inhibition of HCV replication was measured by quantification of photons emitted after mono-oxygenation of 5′-fluoroluciferin to oxyfluoroluciferin by firefly luciferase. For this, media was removed from the plates via gentle tapping. Fifty microliters of ONE-glo luciferase assay reagent was added to each well. The plates were shaken gently for 3 min at room temperature and luminescence was measured on a Victor^3 V 1420 multilabel counter (Perkin Elmer) with a 1 second read time using a 700 nm cut-off filter. The EC50 values were calculated from dose response curves from the resulting best-fit equations determined by Microsoft Excel and XLfit 4.1 software.
Compounds presented in the table below were assayed according to the replicon assay described above.
In general terms: Replicon systems follow genome replication, usually without infectious particles.

Series [2] concerns Zluc cells (Huh-7-derived cell line). Nature of the series: Cytotoxicity evaluation, CellTiter-Blue Cell Viability Assay. It counts as cell-based. The conditions noted are these: read-out: HCV Replicon CC50. The method, then: as §1
Setting [3] is: Hepatitis C virus, Huh-7, 72 h, read-out: HCV Replicon EC50, Zluc cells (Huh-7, HCV genotype 1b replicon, luciferase), 72 hours incubation.

Read-outs that look alike come from different tables or passages of the source.

In series [1], `CCOC(=O)COP(=O)(N[C@@H](CC(C)C)C(=O)OC(C)C)OC[C@H]1O[C@@H](n2cnc3c(OC)nc(N)nc32)[C@](C)(O)[C@@H]1O` (single isomer, unassigned) [Compound 11a] displayed a cytotoxic concentration (CC50) of at least 100 µM. In addition, the 50% effective concentration (EC50) in the series on HCV genotype 1b replicon (setting [3]) is 1 to 5 µM.

On to `CCOC(=O)[C@@H](NP(=O)(OCCC(=O)OC(C)(C)C)OC[C@H]1O[C@@H](n2cnc3c(OC)nc(N)nc32)[C@](C)(O)[C@@H]1O)C(C)C` (mixture of isomers) [Compound 6], for which the CC50 in series [1] was at least 100 µM. For the same compound, in the series with HCV genotype 1b replicon (setting [3]), the concentration giving a half-maximal response (EC50) was 1 to 5 µM.

The compound `COc1nc(N)nc2c1ncn2[C@@H]1O[C@H](COP(=O)(N[C@@H](CC(C)C)C(=O)OC(C)C)OC(C)C(=O)OCc2ccccc2)[C@@H](O)[C@@]1(C)O` (stereo partly shown) [Compound 4] yielded a CC50 in series [1] of 50 to 99 µM. Also, the half-maximal effective concentration (EC50) in the series on HCV genotype 1b replicon (setting [3]) lay in the range of 0.5 to 1 µM.

In turn, `CCOC(=O)COP(=O)(NC(C(=O)OCC)c1ccccc1)OC[C@H]1O[C@@H](n2cnc3c(OC)nc(N)nc32)[C@](C)(O)[C@@H]1O` (stereo partly shown) [Compound 8] registered a CC50 in series [1] of at least 100 µM. Moreover, the EC50 in the series with HCV genotype 1b replicon (setting [3]) lay in the range of 5 to 10 µM.

Compound `CCOC(=O)[C@H](Cc1ccccc1)NP(=O)(OCC(=O)OC(C)C)OC[C@H]1O[C@@H](n2cnc3c(OC)nc(N)nc32)[C@](C)(O)[C@@H]1O` (mixture of isomers) [Compound 2] yielded a CC50 in series [1] of at least 100 µM. The 50% effective concentration (EC50) in the series on HCV genotype 1b replicon (setting [3]) is 0.5 to 1 µM.

As to `CCOC(=O)COP(=O)(N[C@@H](CCSC)C(=O)OCC)OC[C@H]1O[C@@H](n2cnc3c(OC)nc(N)nc32)[C@](C)(O)[C@@H]1O` (mixture of isomers) [Compound 9], the CC50 in series [1] was at least 100 µM. In addition, in the series with HCV genotype 1b replicon (setting [3]), the concentration giving a half-maximal response (EC50) lay in the range of 1 to 5 µM.

In series [1], `COc1nc(N)nc2c1ncn2[C@@H]1O[C@H](COP(=O)(N[C@@H](C)C(=O)OC(C)C)OCC(=O)OC(C)C)[C@@H](O)[C@@]1(C)O` (stereo partly shown) [Compound 1] registered a cytotoxic concentration (CC50) of at least 100 µM. Further, the 50% effective concentration (EC50) in the series on HCV genotype 1b replicon (setting [3]) is 1 to 5 µM.

The compound `CCOC(=O)COP(=O)(N[C@@H](CC(C)C)C(=O)OC(C)C)OC[C@H]1O[C@@H](n2cnc3c(OC)nc(N)nc32)[C@](C)(F)[C@@H]1O` (mixture of isomers) [Compound 12] gave a CC50 in series [1] of at least 100 µM. Also, the half-maximal effective concentration (EC50) in the series on HCV genotype 1b replicon (setting [3]) fell in the range of 0.5 to 1 µM.

As for `COc1nc(N)nc2c1ncn2[C@@H]1O[C@H](COP(=O)(N[C@@H](CC(C)C)C(=O)OC(C)C)OCC(=O)NCc2ccc(F)cc2)[C@@H](O)[C@@]1(C)O` (mixture of isomers) [Compound 10], in series [1], the CC50 is at least 100 µM. In addition, the EC50 with HCV genotype 1b replicon (setting [3]) lay within 1 to 5 µM.

`COc1nc(N)nc2c1ncn2[C@@H]1O[C@H](COP(=O)(N[C@@H](CC(C)C)C(=O)OC(C)C)OCCCC(=O)NCc2ccc(F)cc2)[C@@H](O)[C@@]1(C)O` (stereo partly shown) [Compound 5]: in series [1], the CC50 was at least 100 µM. In the series with HCV genotype 1b replicon (setting [3]), the concentration for a half-maximal effect (EC50) lay in the range of 5 to 10 µM.

Take `CCOC(=O)COP(=O)(N[C@@H](CC(C)C)C(=O)OC(C)C)OC[C@H]1O[C@@H](n2cnc3c(OC)nc(N)nc32)[C@](C)(O)[C@@H]1O` (single isomer, unassigned) [Compound 11b]: the CC50 in series [2] was 50 to 99 µM. The concentration giving a half-maximal response (EC50) in the series with HCV genotype 1b replicon (read-out: HCV Replicon EC50, Zluc cells (Huh-7, HCV genotype 1b replicon, luciferase), 72 hours incubation) was below 0.5 µM.

In series [1], `CCOC(=O)COP(=O)(N[C@@H](CC(C)C)C(=O)OC(C)C)OC[C@H]1O[C@@H](n2cnc3c(OC)nc(N)nc32)[C@](C)(O)[C@@H]1O` (stereo partly shown) [Compound 11] displayed a CC50 of at least 100 µM. Also, the concentration giving a half-maximal response (EC50) with HCV genotype 1b replicon (setting [3]) was below 0.5 µM.

Turning to `CCOC(=O)COP(=O)(N[C@H](Cc1ccccc1)C(=O)OC(C)C)OC[C@H]1O[C@@H](n2cnc3c(OC)nc(N)nc32)[C@](C)(O)[C@@H]1O` (stereo partly shown) [Compound 3], the CC50 in series [1] is at least 100 µM. Moreover, the 50% effective concentration (EC50) in the series with HCV genotype 1b replicon (setting [3]) is 5 to 10 µM.

In the case of `CCOC(=O)COP(=O)(N[C@H](C(=O)OC)C(C)C)OC[C@H]1O[C@@H](n2cnc3c(OCC)nc(N)nc32)[C@](C)(O)[C@@H]1O` (mixture of isomers) [Compound 7], the half-maximal cytotoxic concentration (CC50) in series [1] is at least 100 µM. Moreover, the concentration giving a half-maximal response (EC50) in the series with HCV genotype 1b replicon (setting [3]) fell in the range of 1 to 5 µM.

As a reminder, the CC50 is the concentration at which the toxic effect on the cells reaches its halfway point. For orientation: EC50 means the midpoint of the concentration-response curve.
